# From patent US6737383B1, “Herbicidal oxadiazolidines” (priority 1999, dated 2004)
# What was measured:
# [1] = system: wild oat; assay: Test E wild oat; format: in vivo, Avena fatua; settings: Preemergence
# [2] = system: winter wheat; assay: Test E winter wheat; format: in vivo, Triticum aestivum; settings: Postemergence
# How it was run: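 For postemergence, plants at the 1- to 4-leaf stage, in a 60:40 mix of sandy loam and potting mix, treated with compound formulated in a surfactant-containing non-phytotoxic solvent. Visual assessment versus untreated controls followed roughly 21–28 days in the greenhouse.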
# [3] = system: green foxtail; assay: Test E green foxtail; format: in vivo, Setaria viridis; settings: Preemergence
# [4] = system: winter wheat; assay: Test E winter wheat; format: in vivo, Triticum aestivum; settings: Preemergence
# [5] = system: soybean; assay: Test B pre/postemergence soybean; format: in vivo, Glycine max
# How it was run: (§1)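 Herbicidal effect was estimated by eye on a ten-point control scale after plants spent twelve to sixteen days in a greenhouse following soil or foliar treatment. Foliar sprays targeted plants at one to four leaves; all doses were formulated in a non-phytotoxic solvent with surfactant.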
# [6] = system: Italian ryegrass; assay: Test E Italian ryegrass; format: in vivo, Lolium multiflorum; settings: Preemergence
# [7] = system: blackgrass; assay: Test E blackgrass; format: in vivo, Alopecurus myosuroides; settings: Preemergence
# [8] = system: winter barley; assay: Test E winter barley; format: in vivo, Hordeum vulgare; settings: Preemergence
# [9] = system: blackgrass; assay: Test B pre/postemergence blackgrass; format: in vivo, Alopecurus myosuroides
# How it was run: as §1
# [10] = system: velvetleaf; assay: Test B pre/postemergence velvetleaf; format: in vivo, Abutilon theophrasti
# How it was run: as §1
# [11] = system: bedstraw; assay: Test B pre/postemergence bedstraw; format: in vivo, Galium aparine
# How it was run: as §1
# [12] = Rate 500 g/ha, 0 to 100 scale where 0 is no effect and 100 is complete control
# [13] = Rate 1000 g/ha, 0 to 100 scale, 0 no effect, 100 complete control
# [14] = Rate 1000 g/ha, 0 to 100 scale where 0 is no effect and 100 is complete control
# [15] = Preemergence, Rate 62 g/ha, scale of 0 to 10 where 0 is no effect and 10 is complete control
# [16] = Preemergence, Rate 250 g/ha, scale of 0 to 10 where 0 is no effect and 10 is complete control
# [17] = Preemergence, Rate 500 g/ha, scale of 0 to 10 where 0 is no effect and 10 is complete control
# [18] = Rate 125 g/ha, Postemergence, scale of 0 to 10 where 0 is no effect and 10 is complete control
# [19] = Rate 125 g/ha, Preemergence, scale of 0 to 10 where 0 is no effect and 10 is complete control
# [20] = Rate 250 g/ha, Postemergence, scale of 0 to 10 where 0 is no effect and 10 is complete control
# [21] = Rate 500 g/ha, Postemergence, scale 0 to 10, 0 no effect, 10 complete control
# [22] = Rate 62 g/ha, Postemergence, scale of 0 to 10 where 0 is no effect and 10 is complete control
# [23] = Rate 125 g/ha, 0 to 100 scale (0 no effect, 100 complete control)
# [24] = Rate 62 g/ha, Postemergence, scale 0 to 10 (0 no effect, 10 complete control)
# [25] = Postemergence, Rate 62 g/ha, scale 0 to 10, 0 is no effect, 10 is complete control
# [26] = Postemergence, Rate 250 g/ha, scale 0 to 10, 0 no effect, 10 complete control
# [27] = Preemergence, Rate 62 g/ha, scale 0 to 10, 0 is no effect, 10 is complete control
# [28] = Preemergence, Rate 125 g/ha, scale 0 to 10 (0 no effect, 10 complete control)
# [29] = Preemergence, Rate 500 g/ha, scale 0 (no effect) to 10 (complete control)
# [30] = Rate 125 g/ha, Postemergence, scale 0 to 10, 0 no effect, 10 complete control
# [31] = Rate 500 g/ha, Postemergence, 0 to 10 scale (0 no effect, 10 complete control)
smiles,measurement,setting,value
Cc1cccc(C)c1-n1c(=O)on(C(=O)N(C(C)C)C2C=CCCC2)c1=O (stereo not shown) [Compound 273],Wild oat plant response rating (0 to 100 scale),[1]; Rate 250 g/ha,80
same,"Plant response rating, Wild oat",[1]; [12],70
same,"Plant response rating, Wild oat",[1]; [13],80
same,"Plant response rating, Wheat (winter)",[2]; [14],60
same,Wheat (winter) plant response rating,"[2]; Rate 250 g/ha, 0 to 100 scale where 0 is no effect and 100 is complete control",30
same,"Plant response rating, Wheat (winter)","[2]; Rate 500 g/ha, 0 to 100 scale, 0 is no effect, 100 is complete control",50
same,Green foxtail plant response rating (0 to 100 scale),[3]; Rate 250 g/ha,20
same,"Plant response rating, Green foxtail",[3]; [12],30
same,"Plant response rating, Green foxtail",[3]; [13],60
same,Wheat (winter) plant response rating (0 to 100 scale),[4]; Rate 250 g/ha,50
same,"Plant response rating, Wheat (winter)",[4]; [12],60
same,"Plant response rating, Wheat (winter)",[4]; [13],60
same,Soybean plant response rating,[5]; [15],0
same,Soybean plant response rating,[5]; [16],0
same,"Plant response rating, Soybean",[5]; [17],0
same,Soybean plant response rating,[5]; [18],3
same,Soybean plant response rating,[5]; [19],0
same,"Plant response rating, Soybean",[5]; [20],3
same,Soybean plant response rating,[5]; [21],4
same,I. Ryegrass plant response rating (0 to 100 scale),[6]; Rate 250 g/ha,30
same,"Plant response rating, I. Ryegrass",[6]; [12],55
same,"Plant response rating, I. Ryegrass",[6]; [13],60
same,Blackgrass plant response rating (0 to 100 scale),[7]; Rate 250 g/ha,55
same,"Plant response rating, Blackgrass",[7]; [12],80
same,"Plant response rating, Blackgrass",[7]; [13],100
same,Barley (winter) plant response rating (0 to 100 scale),[8]; Rate 250 g/ha,70
same,"Plant response rating, Barley (winter)",[8]; [12],65
same,"Plant response rating, Barley (winter)",[8]; [13],80
same,Blackgrass plant response rating,[9]; [15],0
same,"Plant response rating, Blackgrass",[9]; [17],0
same,Blackgrass plant response rating,[9]; [22],0
same,Blackgrass plant response rating,[9]; [18],1
same,Blackgrass plant response rating,[9]; [19],0
same,"Plant response rating, Blackgrass",[9]; [20],2
same,Blackgrass plant response rating,[9]; [21],4
same,Velvetleaf plant response rating,[10]; [15],0
same,Velvetleaf plant response rating,[10]; [16],0
same,"Plant response rating, Velvetleaf",[10]; [17],1
same,Velvetleaf plant response rating,[10]; [18],0
same,Velvetleaf plant response rating,[10]; [19],0
same,"Plant response rating, Velvetleaf",[10]; [20],0
same,Velvetleaf plant response rating,[10]; [21],2
same,Bedstraw plant response rating,[11]; [15],0
same,Bedstraw plant response rating,[11]; [16],0
same,Bedstraw plant response rating,[11]; [22],0
same,Bedstraw plant response rating,[11]; [18],0
same,Bedstraw plant response rating,[11]; [19],0
same,"Plant response rating, Bedstraw",[11]; [20],0
same,Bedstraw plant response rating,[11]; [21],0
CSCCn1c(=O)on(C(=O)N(c2ccc(F)cc2)C(C)C)c1=O [Compound 314],"Plant response rating, Wild oat",[1]; [23],70
same,"Plant response rating, Wild oat","[1]; Rate 250 g/ha, 0 to 100 scale",70
same,"Plant response rating, Wheat (winter)","[2]; Rate 125 g/ha, 0 to 100 scale, 0 is no effect, 100 is complete control",65
same,"Plant response rating, Wheat (winter)","[2]; Rate 250 g/ha, 0 to 100 scale, 0 is no effect, 100 is complete control",70
same,"Plant response rating, Green foxtail",[3]; [23],60
same,"Plant response rating, Green foxtail","[3]; Rate 250 g/ha, 0 to 100 scale",85
same,"Plant response rating, Wheat (winter)",[4]; [23],65
same,"Plant response rating, Wheat (winter)","[4]; Rate 250 g/ha, 0 to 100 scale",70
same,Soybean plant response rating,[5]; [15],0
same,Soybean plant response rating (0 to 10 scale),"[5]; Preemergence, Rate 125 g/ha",0
same,Soybean plant response rating,[5]; [16],0
same,Soybean plant response rating,[5]; [17],0
same,Soybean plant response rating,[5]; [24],2
same,Soybean plant response rating,[5]; [18],3
same,"Plant response rating, Soybean",[5]; [20],4
same,"Plant response rating, I. Ryegrass",[6]; [23],50
same,"Plant response rating, I. Ryegrass","[6]; Rate 250 g/ha, 0 to 100 scale",55
same,"Plant response rating, Blackgrass",[7]; [23],40
same,"Plant response rating, Blackgrass","[7]; Rate 250 g/ha, 0 to 100 scale",50
same,"Plant response rating, Barley (winter)",[8]; [23],50
same,"Plant response rating, Barley (winter)","[8]; Rate 250 g/ha, 0 to 100 scale, 0 no effect, 100 complete control",60
same,Blackgrass plant response rating,[9]; [15],5
same,Blackgrass plant response rating (0 to 10 scale),"[9]; Preemergence, Rate 125 g/ha",7
same,Blackgrass plant response rating,[9]; [16],10
same,Blackgrass plant response rating,[9]; [17],10
same,Blackgrass plant response rating,[9]; [24],2
same,Blackgrass plant response rating,[9]; [18],4
same,"Plant response rating, Blackgrass",[9]; [20],5
same,Blackgrass plant response rating,[9]; [21],5
same,Velvetleaf plant response rating,[10]; [15],0
same,Velvetleaf plant response rating (0 to 10 scale),"[10]; Preemergence, Rate 125 g/ha",0
same,Velvetleaf plant response rating,[10]; [16],3
same,Velvetleaf plant response rating,[10]; [17],5
same,Velvetleaf plant response rating,[10]; [24],0
same,Velvetleaf plant response rating,[10]; [18],0
same,"Plant response rating, Velvetleaf",[10]; [20],0
same,Bedstraw plant response rating,[11]; [15],0
same,Bedstraw plant response rating (0 to 10 scale),"[11]; Preemergence, Rate 125 g/ha",0
same,Bedstraw plant response rating,[11]; [16],0
same,Bedstraw plant response rating,[11]; [17],3
same,Bedstraw plant response rating,[11]; [24],2
same,Bedstraw plant response rating,[11]; [18],4
Cc1ccc(N(C(=O)n2oc(=O)n(-c3ccccc3C)c2=O)C(C)C)cc1 [Compound 40],"Plant response rating, Wild oat",[1]; [12],50
same,"Plant response rating, Wild oat",[1]; [14],60
same,"Plant response rating, Wheat (winter)","[2]; Rate 250 g/ha, 0 to 100 scale (0 no effect, 100 complete control)",0
same,"Plant response rating, Wheat (winter)","[2]; Rate 1000 g/ha, 0 to 100 scale, 0 is no effect and 100 is complete control",0
same,"Plant response rating, Wheat (winter)","[2]; Rate 500 g/ha, 0 to 100 scale, 0 no effect, 100 complete control",0
same,"Plant response rating, Green foxtail","[3]; Rate 250 g/ha, 0 to 100 scale",70
same,"Plant response rating, Green foxtail",[3]; [12],90
same,"Plant response rating, Green foxtail",[3]; [14],90
same,"Plant response rating, Wheat (winter)","[4]; Rate 250 g/ha, 0 to 100 scale",20
same,"Plant response rating, Wheat (winter)",[4]; [12],30
same,"Plant response rating, Wheat (winter)",[4]; [14],40
same,Soybean plant response rating,[5]; [25],3
same,Soybean plant response rating,[5]; [26],4
same,"Plant response rating, Soybean",[5]; [27],0
same,"Plant response rating, Soybean",[5]; [28],0
same,"Plant response rating, Soybean",[5]; [16],0
same,Soybean plant response rating,[5]; [29],0
same,Soybean plant response rating,[5]; [30],3
same,"Plant response rating, I. Ryegrass","[6]; Rate 250 g/ha, 0 to 100 scale",30
same,"Plant response rating, I. Ryegrass",[6]; [12],70
same,"Plant response rating, I. Ryegrass",[6]; [14],70
same,"Plant response rating, Blackgrass","[7]; Rate 250 g/ha, 0 to 100 scale",40
same,"Plant response rating, Blackgrass",[7]; [12],60
same,"Plant response rating, Blackgrass",[7]; [14],70
same,"Plant response rating, Barley (winter)","[8]; Rate 250 g/ha, 0 to 100 scale",30
same,"Plant response rating, Barley (winter)",[8]; [12],40
same,"Plant response rating, Barley (winter)",[8]; [14],50
same,Blackgrass plant response rating,[9]; [25],0
same,Blackgrass plant response rating,[9]; [26],4
same,"Plant response rating, Blackgrass",[9]; [27],0
same,"Plant response rating, Blackgrass",[9]; [28],0
same,"Plant response rating, Blackgrass",[9]; [16],1
same,Blackgrass plant response rating,[9]; [29],6
same,Blackgrass plant response rating,[9]; [30],0
same,Blackgrass plant response rating,[9]; [31],7
same,Velvetleaf plant response rating,[10]; [25],0
same,Velvetleaf plant response rating,[10]; [26],0
same,"Plant response rating, Velvetleaf",[10]; [27],0
same,"Plant response rating, Velvetleaf",[10]; [28],0
same,"Plant response rating, Velvetleaf",[10]; [16],0
same,Velvetleaf plant response rating,[10]; [29],0
same,Velvetleaf plant response rating,[10]; [30],0
same,Bedstraw plant response rating,[11]; [25],0
same,"Plant response rating, Bedstraw",[11]; [27],0
same,"Plant response rating, Bedstraw",[11]; [28],0
same,"Plant response rating, Bedstraw",[11]; [16],0
same,Bedstraw plant response rating,[11]; [29],0
same,Bedstraw plant response rating,[11]; [31],2
